From patent US11952328B2, “Selective ship inhibitors for treating disease” (THE RESEARCH FOUNDATION FOR THE STATE UNIVERSITY OF NEW YORK, priority 2018, dated 2024)

System: NK cells
Test: NK cell IFNγ production by intracellular flow cytometry after two-day in vivo treatment
Parameters: species or system mice
Conditions: two-day 3AC vs vehicle
Protocol: FIGS. 3B-3E show activation of NK cells and T cells following exposure to the SHIP1 inhibitor 3AC in vivo. NK cells from two-day 3AC- or vehicle-treated mice were stimulated by incubation on uncoated plates, on plates coated with anti-NK1.1, anti-NKp46, or anti-NKG2D antibody, or on uncoated plates but in the presence of PMA and ionomycin. Representative flow plots (FIG. 3B) and box and whisker plots (FIG. 3C) show the frequency of NK cell production of IFNγ determined by intracellular flow cytometry. […] Anti-CD107a (LAMP-1) PE antibody was added for the final 5 hours of incubation. Degranulation of CD8+ T cells was determined by analysis of CD107a expression by flow cytometry. […]
SHIP1 is recruited directly to the T cell receptor (TcR), as well as to the scaffolding protein Dokl that limits T cell activation by the TcR (Reginald, K., Revisiting the timing of action of the PAG adaptor using quantitative proteomics analysis of primary T cells. J Immunol. (2015); 195: 5472-5481; Waterman, P. M. et al., The inositol 5phosphatase SHIP-1 and adaptors Dok-1 and 2 play central roles in CD4-mediated inhibitory signaling. Immunol Lett. (2012); 143: 122-130; Freeburn, R. W. et al., Evidence that SHIP-1 contributes to phosphatidylinositol 3,4,5-trisphosphate metabolism in T lymphocytes and can regulate novel phosphoinositide 3-kinase effectors. […]

## CC(C)CCC[C@@H](C)[C@H]1CC[C@H]2[C@@H]3CCC4C[C@H](N)CC[C@]4(C)[C@H]3CC[C@]12C (stereo partly drawn) [Compound 3AC, 3-α-aminocholestane]
Stimulated with PMA and ionomycin
  NK cell IFNγ production: no difference
Stimulation with anti-NK1.1, anti-NKp46 or anti-NKG2D
  NK cell IFNγ production: significantly increased
